Patent publication US11312726B2, “Thienodiazepine derivatives and application thereof” (priority 2017, dated 2022)

Columns and labels:
BRD4-BD1 = BRD4-BD1 (Homo sapiens (Human), UniProt O60885); test: BRD4 biochemical activity test (TR-FRET), BD1; settings: read-out: BRD4 Binding (BD1), IC50
Description: (§1) BRD4 Biochemical Activity Test
(§2) 1) BRD4-BD1 and BRD4-BD2 proteins of BPS Company, polypeptide of ANASPEC Company, and test reagent of PerkinElmer Company were used in the experiments;
(§3) 2) The TR-FRET experimental principle was used in the experiment to screen compounds.
(§4) 3) Relevant control compounds
(§5) 1) Preparation of the Compound Plate:
(§6) Preparation of the compound plate in the experiment was achieved by Echo:
(§7) 2) Preparation of Reaction Reagents:
(§8) Relevant reaction reagents should be prepared on the day of the experiment:
(§9) a) Formulation of 1× assay buffer;
(§10) b) Formulation of 3× component solution for the experiment: […]
(§11) 1. The reagent was taken out and placed on ice to naturally melt for later use;
(§12) 2. “Solution A” (protein solution), “solution B” (polypeptide solution), and “solution C” (test reagent solution) used in the experiment were formulated with the 1× assay buffer, and during the formation of the 3× solution from the components used in the experiment reaction system, the amounts of solutions A, B and C must be enough for the required amounts in the experiment.
(§13) 3) Experimental Operation Steps:
(§14) The experiment plate was a plate that contained a gradient concentration of the compound and a corresponding DMSO solution and was prepared with ECHO before the experiment:
(§15) a) The experiment plate was taken out, and 5 μL/well of “solution A” (protein solution) was added to columns 2-23 of the experiment plate, then 5 μL/well of 1× assay buffer was added to columns 1 and 24 of the experiment plate, and columns 1 and 24 were used as Min control in the experiment system;
(§16) b) Centrifugation at 1000 rpm was carried out for 30 seconds;
(§17) c) The plate was incubated at 23° C. for 20 minutes;
(§18) d) After 20 minutes of incubation, 5 μL/well of “solution B” (polypeptide solution) was added to columns 1-24 of the experiment plate;
(§19) e) Centrifugation at 1000 rpm was carried out for 30 seconds;
(§20) f) The plate was incubated at 23° C. for 20 minutes;
(§21) g) After 20 minutes of incubation, 5 μL/well of “solution C” (test reagent solution) was added to columns 1-24 of the experiment plate;
(§22) h) Centrifugation at 1000 rpm was carried out for 30 seconds;
(§23) i) The plate was incubated at 23° C. for 40 minutes;
(§24) j) The experiment plate was placed on EnVision to read the plate.
(§25) a) The corresponding Max control and Min control of each experiment plate were used to convert to the Z′ value of the experiment plate, and the Z′ value of each plate was ensured to be >0.5;
(§26) b) The IC50 value was calculated from the signal of the control compound by XLFIT5, and ensured to be maintained within 3 times of the average value of historical data.

[1] = tested on: Human prostatic cancer PC-3 cell subcutaneous xenograft tumor; test: In vivo pharmacodynamics, PC-3 subcutaneous xenograft tumor model; settings: 50 mg/kg PO BID × 21 days
Protocol: In Vivo Pharmacodynamics Study of Compound 32 on Human Prostatic Cancer PC-3 Cell Subcutaneous Xenograft Tumor Model
The formulation method of the test substance was the same as in Table 2, and the animal grouping and the dosage regimen were the same as in Table 3.
Strain: BALB/c nude mouse
Week-age and weight: 6-8 weeks of age, 18-22 grams of body weight
Supplier: Shanghai Sippr-BK laboratory animal Co. Ltd.
(§27) 3. Experiment Methods and Steps
Human prostatic cancer PC-3 cells were cultured in monolayer in vitro, and the culture conditions were F-12K culture medium (supplier: Gibco; article number: 21127-022; manufacturing batch number: 1868870) with 10% fetal bovine serum, 100 U/mL penicillin and 100 μg/mL streptomycin. The culture was performed at 37° C. in 5% CO2. Conventional digestion treatment with pancreatin-EDTA for passage was carried out twice a week. When the cells were in the exponential growth phase, the cells were harvested, counted, and inoculated.
(§28) 3.2 Tumor Cell Inoculation
0.1 mL of 10×10^6 PC-3 cells were subcutaneously inoculated into the right-back of each nude mouse. The grouping and administration was started when the average tumor volume reached 100-150 mm^3.
3.3 Tumor Measurement, Experiment Indices, and Statistical Analysis were the Same as MDA-MB-231 Model

[2] = tested on: MC38 mouse colon cancer cell transplantation tumor; test: In vivo anti-tumor effect, MC38 mouse colon cancer transplantation tumor model; settings: for relative tumor proliferation rate T/C / tumor growth inhibition rate TGI: 20th day after administration
Protocol: In Vivo Anti-Tumor Effect of Compound 32 in MC38 Mouse Colon Cancer Cell Animal Transplantation Tumor Model
Week-age and weight: 6-7 weeks of age, 16-20 grams of body weight
Supplier: Shanghai SLAC Laboratory Animal Co., Ltd.
as §27
Mouse colon cancer MC38 cells (OBiO Technology (Shanghai) Corp., Ltd.) were cultured in monolayer in vitro, and the culture conditions were DMEM culture medium (Gibco; article number: 12100) with 10% fetal bovine serum. The culture was performed at 37° C. in 5% CO2 in an incubator. Conventional digestion treatment with 0.25% pancreatin-EDTA for passage was carried out. When the cells were in the exponential growth phase and the saturation was 80%-90%, the cells were harvested, counted, and inoculated.
as §28
0.1 mL of 2×10^5 MC38 cells were subcutaneously inoculated into the right-back of each mouse. The random grouping and administration was carried out according to the tumor volume when the average tumor volume reached about 70 mm^3.
Tumor diameter was measured twice a week with vernier calipers. The equation for calculating tumor volume was V=0.5×a×b^2, wherein a and b represented the major and minor diameters of the tumor, respectively.
The tumor inhibition effect of the compound was evaluated by TGI (%) or relative tumor proliferation rate T/C (%). Relative tumor proliferation rate T/C (%)=TRTV/CRTV×100% (TRTV: RTV of the treatment group; CRTV: RTV of the negative control group). The relative tumor volume (RTV) was calculated according to the results of the tumor measurement. The calculation equation was RTV=Vt/V0, where V0 was the average tumor volume measured at the grouping and administration (i.e. D0), and Vt was the average tumor volume at the time of a certain measurement. TRTV and CRTV were obtained from the data on the same day.
TGI (%) reflected the tumor growth inhibition rate.
At the end of the experiment, the tumor weight would be measured and the Tweight/Cweight percentage would be calculated. Tweight and Cweight represented the tumor weights of the administration group and the medium control group, respectively.
Statistical analysis was performed using SPSS software based on the tumor volume and the tumor weight at the end of the experiment. The comparison between two groups was analyzed by t-test, and the comparison between three or more groups was analyzed by one-way ANOVA.

BRD4-BD2 = BRD4-BD2 (Homo sapiens (Human), UniProt O60885); test: BRD4 biochemical activity test (TR-FRET), BD2; settings: read-out: BRD4 Binding (BD2), IC50
Description: as §1, §2, §3, §4, §5, §6, §7, §8, §9, §10, §11, §12, §13, §14, §15, §16, §17, §18, §19, §20, §21, §22, §23, §24, §25, §26

[3] = each administration group (15, 25, 50 mg/kg)

Cc1sc2c(c1C)C(c1ccc(Cl)cc1)=N[C@@H](CC(=O)Nc1ccc3c(c1)COC3=O)c1nnc(C)n1-2 [Compound 32]
IC50 (BRD4-BD1): 66 nM
tolerance of the animals [1]: well tolerated
tumor inhibition effect compared with solvent control ([1]; 21st day): significant tumor inhibition effect
relative tumor proliferation rate T/C ([1]; 21st day after administration): 44.63%
tumor growth inhibition rate TGI ([1]; 21st day after administration): 58.4%
relative tumor proliferation rate T/C ([2]; 15 mg/kg p.o. BID × 20 days): 33.68%
tumor growth inhibition rate TGI ([2]; 15 mg/kg p.o. BID × 20 days): 68.81%
relative tumor proliferation rate T/C ([2]; 25 mg/kg p.o. BID × 20 days): 27.59%
tumor growth inhibition rate TGI ([2]; 25 mg/kg p.o. BID × 20 days): 75.21%
relative tumor proliferation rate T/C ([2]; 50 mg/kg p.o. BID × 20 days): 10.04%
tumor growth inhibition rate TGI ([2]; 50 mg/kg p.o. BID × 20 days): 93.46%
tolerance of the animals [2, 3]: good tolerance
tumor inhibition effect (in words) [2, 3]: Significant tumor inhibition effects
IC50 (BRD4-BD2): 10 nM
